Reference: US8959984B2, “Proteome-wide quantification of small molecule binding to cellular target proteins” (priority 2007, dated 2015)
Read-outs that look alike come from different tables or passages of the source.

Assays:
NAMPT = NAMPT (Homo sapiens, UniProt P43490)
[1] = target: p38a (MAPK14, IPI00221141) (Homo sapiens, UniProt Q16539); experiment: gefitinib competition against AX14596 beads (HeLa lysate, SILAC MS); assay type: binding
SNRPG = SNRPG (Homo sapiens, UniProt P62308)
SgK085 (MYLK3) = target: T1, SgK085 (MYLK3) (Homo sapiens, UniProt Q32MK0)
T1 sequence (Q32MK0 1-819): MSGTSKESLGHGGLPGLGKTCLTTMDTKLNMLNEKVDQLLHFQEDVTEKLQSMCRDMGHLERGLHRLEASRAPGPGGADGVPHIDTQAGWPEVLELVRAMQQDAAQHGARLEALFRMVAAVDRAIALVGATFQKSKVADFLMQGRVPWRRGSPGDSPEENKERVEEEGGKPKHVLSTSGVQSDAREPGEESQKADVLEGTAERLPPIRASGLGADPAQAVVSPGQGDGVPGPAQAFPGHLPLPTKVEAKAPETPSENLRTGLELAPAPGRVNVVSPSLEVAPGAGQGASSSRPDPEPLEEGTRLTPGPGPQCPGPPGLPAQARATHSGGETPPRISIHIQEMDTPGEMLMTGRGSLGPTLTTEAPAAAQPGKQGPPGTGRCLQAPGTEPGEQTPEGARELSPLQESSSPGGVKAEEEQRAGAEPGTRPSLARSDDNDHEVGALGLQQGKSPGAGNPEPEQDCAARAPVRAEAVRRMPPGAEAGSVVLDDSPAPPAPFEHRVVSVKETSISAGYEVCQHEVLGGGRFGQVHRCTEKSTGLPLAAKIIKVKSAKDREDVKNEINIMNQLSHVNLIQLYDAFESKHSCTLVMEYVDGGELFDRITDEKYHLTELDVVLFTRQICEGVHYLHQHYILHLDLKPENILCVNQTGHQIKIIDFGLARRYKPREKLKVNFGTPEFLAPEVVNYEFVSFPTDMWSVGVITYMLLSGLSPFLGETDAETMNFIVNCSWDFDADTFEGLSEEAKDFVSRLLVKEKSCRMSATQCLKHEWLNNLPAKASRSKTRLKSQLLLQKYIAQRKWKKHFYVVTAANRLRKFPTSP

Sepiapterin reductase = Sepiapterin reductase (Homo sapiens, UniProt P35270); experiment: binding to immobilized V16742 (IVA1/IVA2, HeLa lysate, MS)
[2] = target: T2, Testis expressed sequence 264 protein precursor (Homo sapiens, UniProt Q9Y6I9); experiment: as above
T2 construct: endogenous in cells; host or cells: HeLa S3
T2 sequence (Q9Y6I9 1-313): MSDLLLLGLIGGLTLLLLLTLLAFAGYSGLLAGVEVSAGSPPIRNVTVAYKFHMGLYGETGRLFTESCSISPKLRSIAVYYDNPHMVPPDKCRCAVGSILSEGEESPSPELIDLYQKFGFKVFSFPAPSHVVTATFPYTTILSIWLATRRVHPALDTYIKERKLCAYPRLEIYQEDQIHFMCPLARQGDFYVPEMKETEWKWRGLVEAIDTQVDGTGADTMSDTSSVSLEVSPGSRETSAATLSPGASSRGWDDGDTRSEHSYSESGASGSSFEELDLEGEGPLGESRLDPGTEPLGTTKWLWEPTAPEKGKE

Sequence of p38a (MAPK14, IPI00221141) (Q16539 1-360 isoform Q16539-2): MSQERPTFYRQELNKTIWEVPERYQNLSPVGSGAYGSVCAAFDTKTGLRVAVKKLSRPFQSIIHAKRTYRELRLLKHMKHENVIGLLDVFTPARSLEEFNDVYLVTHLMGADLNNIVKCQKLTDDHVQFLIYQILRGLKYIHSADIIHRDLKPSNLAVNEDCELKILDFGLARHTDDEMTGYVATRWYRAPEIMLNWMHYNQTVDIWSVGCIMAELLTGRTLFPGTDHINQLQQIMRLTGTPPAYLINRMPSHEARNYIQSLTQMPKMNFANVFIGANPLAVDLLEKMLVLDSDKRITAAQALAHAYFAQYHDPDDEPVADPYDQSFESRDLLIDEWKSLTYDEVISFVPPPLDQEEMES
Sequence of Sepiapterin reductase (P35270 whole entry): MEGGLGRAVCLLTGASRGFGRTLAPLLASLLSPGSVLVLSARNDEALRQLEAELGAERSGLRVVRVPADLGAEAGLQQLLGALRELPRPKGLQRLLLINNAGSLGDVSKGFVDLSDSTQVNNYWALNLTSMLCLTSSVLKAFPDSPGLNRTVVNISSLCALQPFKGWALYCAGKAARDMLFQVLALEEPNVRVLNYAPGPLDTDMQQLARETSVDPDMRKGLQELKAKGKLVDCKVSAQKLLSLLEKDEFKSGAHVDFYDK
Sequence of NAMPT (P43490 whole entry): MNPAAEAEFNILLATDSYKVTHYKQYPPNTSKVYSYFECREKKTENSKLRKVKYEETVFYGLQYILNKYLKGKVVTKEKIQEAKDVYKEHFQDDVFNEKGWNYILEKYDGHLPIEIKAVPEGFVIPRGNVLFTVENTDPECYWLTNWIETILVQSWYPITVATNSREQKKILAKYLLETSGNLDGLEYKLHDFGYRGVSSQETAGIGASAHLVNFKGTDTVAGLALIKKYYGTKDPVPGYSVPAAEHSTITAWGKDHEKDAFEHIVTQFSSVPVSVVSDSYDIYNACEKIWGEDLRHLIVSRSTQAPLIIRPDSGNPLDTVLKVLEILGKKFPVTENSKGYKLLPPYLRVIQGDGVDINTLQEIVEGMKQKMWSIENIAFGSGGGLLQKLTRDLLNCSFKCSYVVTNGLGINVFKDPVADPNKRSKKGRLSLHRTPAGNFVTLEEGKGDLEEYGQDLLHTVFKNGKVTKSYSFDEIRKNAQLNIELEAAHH
Sequence of SNRPG (P62306 whole entry): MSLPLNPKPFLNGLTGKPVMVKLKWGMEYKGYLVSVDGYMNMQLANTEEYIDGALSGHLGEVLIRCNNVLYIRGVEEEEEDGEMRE
Sequence of SNRPG (P62304 whole entry, further chain): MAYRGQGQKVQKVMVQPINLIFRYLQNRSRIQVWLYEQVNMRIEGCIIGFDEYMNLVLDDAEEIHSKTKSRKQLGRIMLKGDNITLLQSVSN
Sequence of SNRPG (P62308 whole entry): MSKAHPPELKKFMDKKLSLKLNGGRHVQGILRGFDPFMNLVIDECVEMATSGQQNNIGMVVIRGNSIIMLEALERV

## COc1cc2ncnc(Nc3ccc(F)c(Cl)c3)c2cc1OCCCN1CCOCC1 [gefitinib]
NAMPT
  rAVERAGE (10 nM/0 nM Gef.): 0.71
  rAVERAGE (100 nM/0 nM Gef.): 0.74
  rAVERAGE (1000 nM/0 nM Gef.): 0.73
  rAVERAGE (10000 nM/0 nM Gef.): 0.92
[1]
  rAVERAGE (10 nM/0 nM Gef.): 0.88
  rAVERAGE (100 nM/0 nM Gef.): 0.97
  rAVERAGE (1000 nM/0 nM Gef.): 0.97
  rAVERAGE (10000 nM/0 nM Gef.): 0.64
SNRPG
  rAVERAGE (10 nM/0 nM Gef.): 0.65
  rAVERAGE (100 nM/0 nM Gef.): 1.09
  rAVERAGE (1000 nM/0 nM Gef.): 0.72
  rAVERAGE (10000 nM/0 nM Gef.): 0.89
SgK085 (MYLK3)
  rAVERAGE (10 nM/0 nM Gef.): 0.97
  rAVERAGE (100 nM/0 nM Gef.): 1.01
  rAVERAGE (1000 nM/0 nM Gef.): 0.98
  rAVERAGE (10000 nM/0 nM Gef.): 0.53

## CC(C)n1c(=O)ccc2cnc(Nc3ccc(OCCN)cc3)nc21 [V16742]
Sepiapterin reductase
  Kd: 58.6 µM
Sepiapterin reductase; Kd Avg, Sepiapterin reductase, average of two experiments
  Kd: 93 µM
Sepiapterin reductase; Kd, Sepiapterin reductase, Experiment 2
  Kd: 127 µM
Sepiapterin reductase; Kd, Sepiapterin reductase, immobilized V16742
  Kd: 93 µM
Sepiapterin reductase; Sepiapterin reductase, Experiment 1, 1.87 μM 16742
  Percent bound at various 16742 conc: 2.16%
Sepiapterin reductase; Sepiapterin reductase, Experiment 1, 8.74 μM 16742
  Percent bound at various 16742 conc: 2.59%
Sepiapterin reductase; Sepiapterin reductase, Experiment 1, 52 μM 16742
  Percent bound at various 16742 conc: 51.84%
Sepiapterin reductase; Sepiapterin reductase, Experiment 2, 1.87 μM 16742
  Percent bound at various 16742 conc: 1.04%
Sepiapterin reductase; Sepiapterin reductase, Experiment 2, 8.74 μM 16742
  Percent bound at various 16742 conc: 1.52%
Sepiapterin reductase; Sepiapterin reductase, Experiment 2, 52 μM 16742
  Percent bound at various 16742 conc: 30.43%
[2]; Experiment 1, 1.87 μM 16742
  Percent bound at various 16742 conc: 2.22%
[2]; Experiment 1, 8.74 μM 16742
  Percent bound at various 16742 conc: 2.55%
[2]; Experiment 1, 52 μM 16742
  Percent bound at various 16742 conc: 51.05%
[2]; Experiment 1, read-out: Kd
  Kd: 60 µM
[2]; Experiment 2, 1.87 μM 16742
  Percent bound at various 16742 conc: 2.11%
[2]; Experiment 2, 8.74 μM 16742
  Percent bound at various 16742 conc: 1.91%
[2]; Experiment 2, 52 μM 16742
  Percent bound at various 16742 conc: 24.69%
[2]; Experiment 2, read-out: Kd
  Kd: 165 µM
[2]; average of two experiments, read-out: Kd Avg
  Kd: 113 µM
